Laboratory results taken from patent publication US12172995B2, “Substituted indole and indazole compounds” (BRISTOL-MYERS SQUIBB COMPANY, priority 2018, dated 2024).

Experiments:
Assay type in all cases: cell-based
human TLR7 = molecular target: T1, human TLR7 (Homo sapiens, UniProt Q9NYK1); assay: TLR7 inhibition reporter assay (HEK-Blue SEAP); conditions: HEK-Blue cells overexpressing human TLR7, stimulated with gardiquimod 7.5 μM, 22 hour incubation
T1 construct: host or cells: HEK-Blue cells
T1 sequence (Q9NYK1 27-1049): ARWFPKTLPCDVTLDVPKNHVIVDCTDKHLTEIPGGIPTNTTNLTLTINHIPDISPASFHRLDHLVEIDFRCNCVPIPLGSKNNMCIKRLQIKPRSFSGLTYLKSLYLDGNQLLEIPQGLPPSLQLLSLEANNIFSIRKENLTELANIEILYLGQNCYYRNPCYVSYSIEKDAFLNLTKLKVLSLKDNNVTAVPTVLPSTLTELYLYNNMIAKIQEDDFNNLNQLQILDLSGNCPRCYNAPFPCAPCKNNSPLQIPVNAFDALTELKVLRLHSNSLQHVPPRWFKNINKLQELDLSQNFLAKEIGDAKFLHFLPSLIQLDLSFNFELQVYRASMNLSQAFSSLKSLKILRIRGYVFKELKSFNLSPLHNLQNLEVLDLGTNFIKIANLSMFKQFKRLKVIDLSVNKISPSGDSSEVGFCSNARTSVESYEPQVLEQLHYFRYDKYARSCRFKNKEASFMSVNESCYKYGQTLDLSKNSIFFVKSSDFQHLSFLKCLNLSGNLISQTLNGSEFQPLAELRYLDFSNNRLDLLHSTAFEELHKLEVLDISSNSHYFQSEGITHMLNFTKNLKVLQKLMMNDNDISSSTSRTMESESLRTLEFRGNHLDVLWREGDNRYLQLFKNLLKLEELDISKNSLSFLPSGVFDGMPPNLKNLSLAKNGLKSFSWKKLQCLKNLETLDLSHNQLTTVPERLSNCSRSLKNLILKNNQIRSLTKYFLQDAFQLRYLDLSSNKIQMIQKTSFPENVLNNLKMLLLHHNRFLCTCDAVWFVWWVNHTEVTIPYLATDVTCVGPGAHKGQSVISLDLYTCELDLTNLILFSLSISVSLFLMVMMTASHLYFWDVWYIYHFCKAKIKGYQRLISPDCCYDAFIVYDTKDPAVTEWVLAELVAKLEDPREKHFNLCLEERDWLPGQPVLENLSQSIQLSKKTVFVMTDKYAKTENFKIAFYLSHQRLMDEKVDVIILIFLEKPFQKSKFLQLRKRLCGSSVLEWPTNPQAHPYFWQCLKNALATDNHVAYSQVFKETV
Method in brief: (§1)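 Reporter HEK-Blue lines; cpd 0.05 nM–50 μM, 30 min preincubation RT; agonist: TLR7 gardiquimod 7.5 μM, TLR8 R848 15.9 μM, TLR9 ODN2006 5 nM; 22 h 37 °C; SEAP detected colorimetrically; % inhib vs known inhibitor.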

human TLR8 = molecular target: T2, human TLR8 (Homo sapiens, UniProt Q9NR97); assay: TLR8 inhibition reporter assay (HEK-Blue SEAP); conditions: HEK-Blue cells overexpressing human TLR8, stimulated with R848 15.9 μM, 22 hour incubation
T2 construct: host or cells: HEK-Blue cells
T2 sequence (Q9NR97 27-1041): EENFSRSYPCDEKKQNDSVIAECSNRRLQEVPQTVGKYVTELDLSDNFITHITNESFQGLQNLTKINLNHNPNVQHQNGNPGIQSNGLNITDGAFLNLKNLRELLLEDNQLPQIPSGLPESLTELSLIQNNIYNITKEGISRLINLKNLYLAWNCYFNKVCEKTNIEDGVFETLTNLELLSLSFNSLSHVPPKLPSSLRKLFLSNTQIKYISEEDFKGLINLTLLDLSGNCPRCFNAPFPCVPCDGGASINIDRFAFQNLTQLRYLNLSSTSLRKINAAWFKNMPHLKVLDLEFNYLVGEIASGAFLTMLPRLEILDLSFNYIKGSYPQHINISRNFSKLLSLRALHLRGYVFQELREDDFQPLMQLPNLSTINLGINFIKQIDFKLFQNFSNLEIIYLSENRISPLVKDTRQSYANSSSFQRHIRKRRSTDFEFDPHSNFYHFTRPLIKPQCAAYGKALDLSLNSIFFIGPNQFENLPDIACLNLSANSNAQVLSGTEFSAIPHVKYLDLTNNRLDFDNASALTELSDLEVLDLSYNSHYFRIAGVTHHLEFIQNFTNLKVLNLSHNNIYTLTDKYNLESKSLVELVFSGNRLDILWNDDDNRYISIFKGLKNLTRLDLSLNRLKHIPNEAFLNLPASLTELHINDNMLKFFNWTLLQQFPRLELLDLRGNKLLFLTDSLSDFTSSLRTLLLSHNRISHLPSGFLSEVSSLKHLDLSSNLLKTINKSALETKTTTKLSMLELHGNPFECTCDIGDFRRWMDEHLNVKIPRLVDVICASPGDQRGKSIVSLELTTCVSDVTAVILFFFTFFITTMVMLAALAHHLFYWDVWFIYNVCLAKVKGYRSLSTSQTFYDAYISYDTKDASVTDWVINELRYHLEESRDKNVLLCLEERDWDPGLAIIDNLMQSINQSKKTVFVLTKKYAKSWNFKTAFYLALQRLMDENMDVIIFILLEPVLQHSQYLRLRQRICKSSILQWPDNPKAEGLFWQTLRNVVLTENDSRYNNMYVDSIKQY
Method in brief: as §1

human TLR9 = molecular target: T3, human TLR9 (Homo sapiens, UniProt Q9NR96); assay: TLR9 inhibition reporter assay (HEK-Blue SEAP); conditions: HEK-Blue cells overexpressing human TLR9, stimulated with ODN2006 5 nM, 22 hour incubation
T3 construct: host or cells: HEK-Blue cells
T3 sequence (Q9NR96 26-1032): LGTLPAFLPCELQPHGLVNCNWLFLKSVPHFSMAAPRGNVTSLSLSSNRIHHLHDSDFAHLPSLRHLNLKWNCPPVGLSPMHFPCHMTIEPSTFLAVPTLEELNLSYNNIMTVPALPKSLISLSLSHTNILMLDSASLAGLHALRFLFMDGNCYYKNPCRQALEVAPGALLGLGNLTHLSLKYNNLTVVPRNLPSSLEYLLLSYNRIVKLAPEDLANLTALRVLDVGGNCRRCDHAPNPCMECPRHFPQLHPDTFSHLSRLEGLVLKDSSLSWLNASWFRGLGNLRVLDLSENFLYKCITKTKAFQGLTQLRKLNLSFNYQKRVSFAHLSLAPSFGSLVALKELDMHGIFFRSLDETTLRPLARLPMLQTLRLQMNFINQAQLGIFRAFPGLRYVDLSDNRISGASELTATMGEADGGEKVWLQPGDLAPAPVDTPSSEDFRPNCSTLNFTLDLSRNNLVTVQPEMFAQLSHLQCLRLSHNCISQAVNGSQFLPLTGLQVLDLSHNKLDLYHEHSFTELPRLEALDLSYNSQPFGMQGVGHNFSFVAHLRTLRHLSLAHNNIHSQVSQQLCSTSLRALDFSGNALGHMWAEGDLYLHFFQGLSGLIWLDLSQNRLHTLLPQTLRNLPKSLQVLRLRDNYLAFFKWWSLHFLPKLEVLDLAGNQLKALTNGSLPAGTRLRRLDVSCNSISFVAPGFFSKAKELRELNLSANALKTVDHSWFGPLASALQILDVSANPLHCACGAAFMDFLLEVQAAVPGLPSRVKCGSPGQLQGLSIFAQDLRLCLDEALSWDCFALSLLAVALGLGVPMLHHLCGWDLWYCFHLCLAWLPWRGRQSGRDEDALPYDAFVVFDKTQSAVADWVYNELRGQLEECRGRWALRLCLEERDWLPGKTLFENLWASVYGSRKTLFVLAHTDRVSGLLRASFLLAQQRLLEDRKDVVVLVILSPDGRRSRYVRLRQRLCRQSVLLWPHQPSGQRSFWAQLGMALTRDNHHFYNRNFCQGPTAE
Method in brief: as §1

| IC50 (human TLR7) [nM] | IC50 (human TLR8) [nM] | IC50 (human TLR9) [nM] | SMILES |
| --- | --- | --- | --- |
| 289 | 149 | 1890 | Cc1cc(-c2ccc3c(NC4CCNCC4)n[nH]c3c2)cn2ncnc12 [Example 200, 6-(8-methyl-[1,2,4]triazolo[1,5-a]pyridin-6-yl)-N-(piperidin-4-yl)-1H-indazol-3-amine] |
| 857 | 55.7 | ≥ 50000 | Cc1cc2c(N)n[nH]c2cc1-c1cc(C)c2ncnn2c1 [Example 201, 5-methyl-6-(8-methyl-[1,2,4]triazolo[1,5-a]pyridin-6-yl)-1H-indazol-3-amine] |
| 266 | 15.3 | 9920 | Cc1cc2c(NC(=O)C3CCNCC3)n[nH]c2cc1-c1cc(C)c2ncnn2c1 [Example 202, N-(5-methyl-6-(8-methyl-[1,2,4]triazolo[1,5-a]pyridin-6-yl)-1H-indazol-3-yl)piperidine-4-carboxamide] |
| 85.9 | 1.9 | 2530 | Cc1cc2c(NCCN3CCCC3)n[nH]c2cc1-c1cc(C)c2ncnn2c1 [Example 204, 5-methyl-6-(8-methyl-[1,2,4]triazolo[1,5-a]pyridin-6-yl)-N-(2-(pyrrolidin-1-yl)ethyl)-1H-indazol-3-amine] |
| 14.1 | 0.7 | 6100 | Cc1cc2c(N3CCNCC3)n[nH]c2cc1-c1cc(C)c2ncnn2c1 [Example 205, 8-methyl-6-(5-methyl-3-(piperazin-1-yl)-1H-indazol-6-yl)-[1,2,4]triazolo[1,5-a]pyridine] |
| 3.2 | 16.4 | 21900 | Cc1cc(-c2cc3[nH]nc(N4CCNCC4)c3cc2C(C)C)cn2ncnc12 [Example 206, 6-(5-isopropyl-3-(piperazin-1-yl)-1H-indazol-6-yl)-8-methyl-[1,2,4]triazolo[1,5-a]pyridine] |
| 6.5 | 0.15 | 33300 | Cc1cc(-c2cc3[nH]nc(N4CCN(C5CCOCC5)CC4)c3cc2C(C)C)cn2ncnc12 [Example 207, 6-(5-isopropyl-3-(4-(tetrahydro-2H-pyran-4-yl)piperazin-1-yl)-1H-indazol-6-yl)-8-methyl-[1,2,4]triazolo[1,5-a]pyridine] |
| 5.8 | 0.12 | 11900 | Cc1cc(-c2cc3[nH]nc(N4CCN(C(C)C)CC4)c3cc2C(C)C)cn2ncnc12 [Example 208, 6-(5-isopropyl-3-(4-isopropylpiperazin-1-yl)-1H-indazol-6-yl)-8-methyl-[1,2,4]triazolo[1,5-a]pyridine] |
